From patent US6911445B2, “Antidepressant cycloalkylamine derivatives of heterocycle-fused benzodioxans” (Wyeth, priority 2002, dated 2005)
Counter-ions that a name gives are not always drawn.

Key:
[1] = target: T1, serotonin transporter (Rattus norvegicus, UniProt P31652); test: Displacement of 3H-paroxetine from male rat frontal cortical membranes (serotonin transporter affinity); format: binding; conditions: read-out: 5-HT Transporter Affinity Ki
T1 construct: displace ^3H-paroxetine from male rat frontal cortical membranes; from tissue; host or cells: male rat frontal cortex membranes

[2] = target: T2, cloned human 5HT1A receptors (Homo sapiens, UniProt P08908); test: 35S-GTPγS binding assay, membranes containing cloned human 5HT1A receptors; format: biochemical; conditions: for IC50: antagonist potency, reversal of the standard agonist 8-OH-DPAT, read-out: 5HT1A Function IC50; for 5HT1A Function (Imax): maximum inhibitory effect, value in parentheses; for EC50: given as EC50, increase in 35S-GTPγS binding (agonist), read-out: 5HT1A Function EC50; for Emax: given as Emax, agonist effect, read-out: 5HT1A Function Emax
T2 construct: expressed in transfected cells
T2 sequence (P08908 1-422): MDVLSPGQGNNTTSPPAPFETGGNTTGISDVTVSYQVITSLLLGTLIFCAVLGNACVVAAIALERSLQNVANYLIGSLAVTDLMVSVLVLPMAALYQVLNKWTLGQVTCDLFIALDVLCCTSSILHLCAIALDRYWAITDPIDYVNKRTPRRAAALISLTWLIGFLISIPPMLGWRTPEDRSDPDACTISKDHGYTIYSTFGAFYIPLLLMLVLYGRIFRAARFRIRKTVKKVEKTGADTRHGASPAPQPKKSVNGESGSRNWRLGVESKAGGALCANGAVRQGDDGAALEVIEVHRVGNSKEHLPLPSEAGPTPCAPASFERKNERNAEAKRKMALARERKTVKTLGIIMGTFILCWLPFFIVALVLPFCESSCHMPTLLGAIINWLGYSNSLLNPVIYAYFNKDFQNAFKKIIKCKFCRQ
Description: Antagonist activity at 5HT1A receptors was established by using a ^35S-GTPγS binding assay similar to that used by Lazareno and Birdsall (Br. J. Pharmacol. 109:1120, 1993), in which the test compound's ability to affect the binding of ^35S-GTPγS to membranes containing cloned human 5HT1A receptors was determined. Agonists produce an increase in binding whereas antagonists produce no increase but rather reverse the effects of the standard agonist 8-OH-DPAT. The test compound's maximum inhibitory effect is represented as the Imax, while its potency is defined by the IC50.

[3] = target: T3, human 5HT1A receptors (Homo sapiens, UniProt P08908); test: Displacement of [3H] 8-OH-DPAT from 5HT1A receptor in stably transfected CHO cells; format: binding; conditions: CHO cells with human 5HT1A receptors, read-out: 5HT1A Receptor Affinity Ki
T3 construct: expressed in transfected cells; host or cells: CHO cells
T3 sequence (P08908 1-422): T2 sequence (P08908 1-422)
Text: High affinity for the serotonin 5HT1A receptor was established by testing the claimed compound's ability to displace [^3H] 8-OH-DPAT (dipropylamino-tetralin) from the 5HT1A serotonin receptor following a modification of the procedure of Hall, et al., J. Neurochem. 44, 1685 (1985), which utilizes CHO cells stably transfected with human 5HT1A receptors.

T1 sequence (P31652 whole entry): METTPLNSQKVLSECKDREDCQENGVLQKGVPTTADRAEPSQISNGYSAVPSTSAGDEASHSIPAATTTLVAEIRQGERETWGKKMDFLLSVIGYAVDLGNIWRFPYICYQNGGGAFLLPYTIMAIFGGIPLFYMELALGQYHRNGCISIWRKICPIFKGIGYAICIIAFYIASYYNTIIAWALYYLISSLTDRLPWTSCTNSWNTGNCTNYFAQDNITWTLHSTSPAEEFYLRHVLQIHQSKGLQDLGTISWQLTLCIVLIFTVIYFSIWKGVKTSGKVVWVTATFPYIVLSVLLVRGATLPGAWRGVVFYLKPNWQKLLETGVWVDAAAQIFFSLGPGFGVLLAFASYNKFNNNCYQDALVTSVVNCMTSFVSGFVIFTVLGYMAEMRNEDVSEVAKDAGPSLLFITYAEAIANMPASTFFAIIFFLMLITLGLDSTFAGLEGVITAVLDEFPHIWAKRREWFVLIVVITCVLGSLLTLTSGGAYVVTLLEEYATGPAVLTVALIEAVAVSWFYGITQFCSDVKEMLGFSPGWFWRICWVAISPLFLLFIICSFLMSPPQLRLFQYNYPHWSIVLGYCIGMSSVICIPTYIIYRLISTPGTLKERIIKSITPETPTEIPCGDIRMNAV

| Structure (SMILES) | Ki [1] [µM] | IC50 [2] [µM] | 5HT1A Function (Imax) [2] [%] | Ki [3] [µM] | melting point | EC50 [2] [nM] | Emax [2] [%] |
| --- | --- | --- | --- | --- | --- | --- | --- |
| Cc1ccc2c3c(ccc2n1)OCC(CNC1CCC(c2c[nH]c4ccc(F)cc24)C1)O3 (single isomer, unassigned) [Example 3-Isomer B, N-[(1S*,3R*)-3-(5-fluoro-1H-indol-3-yl)cyclopentyl]-N-{[(2S)-8-methyl-2,3-dihydror[1,4]dioxino[2,3-f]quinolin-2-yl]methyl}amine] | 0.00033 | 0.034 | 97 | 0.00203 | – | – | – |
| Cc1ccc2c3c(ccc2n1)OCC(CNC1CCC(c2cn(C)c4ccc(F)cc24)C1)O3 (single isomer, unassigned) [Example 5] | 0.00369 | 0.142 | 69 | 0.00535 | – | – | – |
| Cc1ccc2c3c(ccc2n1)OCC(CNC1CCC(c2cn(C)c4ccc(F)cc24)C1)O3 (single isomer, unassigned) [Example 5-Isomer B, N-[(1S*,3R*)-3-(5-fluoro-1-methyl-1H-indol-3-yl)cyclopentyl]-N-{[(2S)-8-methyl-2,3-dihydro[1,4]dioxino[2,3-f]quinoli-2-yl]methyl}amine] | 0.003 | 0.158 | 97 | 0.00191 | – | – | – |
| Cc1ccc2c3c(ccc2n1)OCC(CNC1CCC(c2c[nH]c4ccc(F)cc24)C1)O3 [Example 4, N-[(trans)-3-(5-fluoro-1H-indol-3-yl)cyclopentyl]-N-{[(2S)-8-methyl-2,3-dihydro[1,4]dioxino[2,3-f]quinoli-2-yl]methyl}amine] | 0.00062 | 0.044 | 84 | 0.00912 | – | – | – |
| Cc1ccc2c3c(ccc2n1)OC[C@H](CN[C@H]1CC[C@@H](c2c[nH]c4ccc(F)cc24)C1)O3 (mixture of isomers) (as salt: HCl) (hydrate or solvate) [Example 3, N-[(cis)-3-(5-fluoro-1H-indol-3-yl)cyclopentyl]-N-{[(2S)-8-methyl-2,3-dihydro[1,4]dioxino[2,3-f]quinolin-2-yl]methyl}amine] | – | – | – | – | 234 to 235 °C | – | – |
| Cc1nc2ccc3c(c2o1)O[C@@H](CN[C@H]1CC[C@@H](c2c[nH]c4ccc(F)cc42)CC1)CO3 [Example 12] | 0.011 | – | – | 0.0844 | 80 to 82 °C | – | – |
| Cc1ccc2c3c(ccc2n1)OCC(CNC1CCC(c2cn(C)c4ccc(F)cc24)C1)O3 (single isomer, unassigned) [Example 5-Isomer A, N-[(1R*,3S*)-3-(5-fluoro-1-methyl-1H-indol-3-yl)cyclopentyl]-N-{](2S)-8-methyl-2,3-dihydro[1,41]dioxino[2,3-f]quinoli-2-yl]methyl}amine] | 0.00211 | 0.19 | 88 | 0.0125 | – | – | – |
| Cc1ccc2c3c(ccc2n1)OC[C@H](CN(C)[C@H]1CC[C@@H](c2c[nH]c4ccc(F)cc24)C1)O3 (mixture of isomers) [Example 9, N-[(cis)-3-(5-fluoro-1H-indol-3-yl)cyclopentyl]-N-methyl-N-{[(2S)-8-methyl-2,3-dihydro[1,4]dioxino[2,3-f]quinolin-2-yl]methyl}amine] | 0.00084 | 0.242 | 100 | 0.00501 | – | – | – |
| Cc1ccc2c3c(ccc2n1)OC[C@H](CN[C@H]1CC[C@@H](c2c[nH]c4ccc(F)cc24)C1)O3 (mixture of isomers) [Example 3, N-[(cis)-3-(5-fluoro-1H-indol-3-yl)cyclopentyl]-N-{[(2S)-8-methyl-2,3-dihydro[1,4]dioxino[2,3-f]quinolin-2-yl]methyl}amine] | 0.00093 | 0.083 | 100 | 0.00473 | – | – | – |
| Cc1ccc2c3c(ccc2n1)OC[C@H](CN[C@H]1CC[C@@H](c2c[nH]c4ccc(F)cc42)CC1)O3 [Example 7, (cis)-N-[4-(5-fluoro-1H-indol-3-yl)cyclohexyl]-N-{[(2S)-8-methyl-2,3-dihydro[1,4]dioxino[2,3-f]quinolin-2-yl]methyl}amine] | 0.019 | – | – | 0.0517 | – | – | – |
| Cc1ccc2c3c(ccc2n1)OC[C@H](CN(C)[C@@H]1CC[C@H](c2c[nH]c4ccc(F)cc24)C1)O3 (relative stereo) (as salt: fumarate) [Example 13, N-[(1R*,3S*)-3-(5-fluoro-1H-indol-3-yl)cyclopentyl]-N-methyl-N-{[(2S)-8-methyl-2,3-dihydro[1,4]dioxino[2,3-f]quinolin-2-yl]methyl}amine] | – | – | – | – | 198 to 199 °C (dec.) | – | – |
| Cc1nc2ccc3c(c2o1)O[C@@H](CN[C@H]1CC[C@@H](c2c[nH]c4ccc(F)cc24)C1)CO3 (mixture of isomers) [Example 11, N-[(cis)-3-(5-Fluoro-1H-indol-3-yl)cyclopentyl]-N-{[(8S)-2-methyl-7,8-dihydro[1,4]dioxino[2,3-g][1,3]benzoxazol-8-yl]methyl}amine] | 0.00146 | 0.274 | 100 | 0.0164 | 79 to 82 °C | – | – |
| Cc1ccc2c3c(ccc2n1)OC[C@H](CN(C)[C@@H]1CC[C@H](c2c[nH]c4ccc(F)cc24)C1)O3 (relative stereo) [Example 13, N-[(1R*,3S*)-3-(5-fluoro-1H-indol-3-yl)cyclopentyl]-N-methyl-N-{[(2S)-8-methyl-2,3-dihydro[1,4]dioxino[2,3-f]quinolin-2-yl]methyl}amine] | 0.00545 | 0.494 | 100 | 0.0188 | – | – | – |
| Cc1ccc2c3c(ccc2n1)OCC(CNC1CCC(c2c[nH]c4ccccc24)C1)O3 [Example 2, N-[(trans)-3-(1H-indol-3-yl)cyclopentyl]-N-{[(2S)-8-methyl-2,3-dihydro[1,4]dioxino[2,3-f]quinoli-2-yl]methyl}amine] | 0.00169 | – | – | 0.0128 | – | – | – |
| Cc1ccc2c3c(ccc2n1)OCC(CNC1CCC(c2cn(C)c4ccc(F)cc24)C1)O3 (single isomer, unassigned) [Example 6] | 0.00167 | 0.228 | 55 | 0.0203 | – | – | – |
| Cc1ccc2c3c(ccc2n1)OC[C@H](CN[C@H]1CC[C@H](c2c[nH]c4ccc(F)cc42)CC1)O3 [Example 8, (trans)-N-[4-(5-fluoro-1H-indol-3-yl)cyclohexyl]-N-{[(2S)-8-methyl-2,3-dihydro[1,4]dioxino[2,3-f]quinolin-2-yl]methyl}amine] | 0.00416 | – | – | 0.0146 | – | 66 | 95 |
| Cc1ccc2c3c(ccc2n1)OC[C@H](CN[C@H]1CC[C@H](c2c[nH]c4ccc(F)cc24)C1)O3 (single isomer, unassigned) [Example 4-Isomer A, N-[(1S*,3S*)-3-(5-fluoro-1H-indol-3-yl)cyclopentyl]-N-{[(2S)-8-methyl-2,3-dihydro[1,4]dioxino[2,3-f]quinolin-2-yl]methyl}amine] | 0.00054 | 0.06 | 56 | 0.00772 | – | – | – |
| Cc1ccc2c3c(ccc2n1)OC[C@H](CN[C@@H]1CC[C@@H](c2c[nH]c4ccc(F)cc24)C1)O3 (single isomer, unassigned) [Example 4-Isomer B, N-[(1R*,3R*)-3-(5-fluoro-1H-indol-3-yl)cyclopentyl]-N-{[(2S)-8-methyl-2,3-dihydro[1,4]dioxino[2,3-f]quinolin-2-yl]methyl}amine] | 0.00067 | 1.44 | 100 | 0.0265 | – | – | – |
| Cc1ccc2c3c(ccc2n1)OC[C@H](CN[C@@H]1CC[C@H](c2c[nH]c4ccc(F)cc24)C1)O3 (single isomer, unassigned) [Example 3-Isomer A, N-[(1R*,3S*)-3-(5-fluoro-1H-indol-3-yl)cyclopentyl]-N-{[(2S)-8-methyl-2,3-dihydro[1,4]dioxino[2,3-f]quinolin-2-yl]methyl}amine] | 0.00038 | 0.069 | 82 | 0.00873 | – | – | – |
| Cc1ccc2c3c(ccc2n1)OCC(CNC1CCC(c2cn(C)c4ccc(F)cc24)C1)O3 (single isomer, unassigned) (as salt: fumarate) [Example 5] | – | – | – | – | 200 to 201 °C | – | – |
| Cc1ccc2c3c(ccc2n1)OC[C@H](CN[C@H]1CC[C@@H](c2c[nH]c4ccccc24)C1)O3 (mixture of isomers) [Example 1, N-[(cis)-3-(1H-indol-3-yl)cyclopentyl]-N-{[(2S)-8-methyl-2,3-dihydro[1,4]dioxino[2,3-f]quinolin-2-yl]methyl}amine] | 0.00125 | – | – | 0.00256 | – | 33 | 38 |
